In ChEMBL document CHEMBL1155587, “Spasmolytic constituents from Eucalyptus camaldulensis var. obtusa leaves” (2000):

What was measured:
[1] = system: Jejunum; test: Spasmolytic activity in rabbit jejunum assessed as relaxation of K+-induced muscle contraction at 10 ug/ml relative to calcium; format: functional, Oryctolagus cuniculus
[2] = system: Jejunum; test: Spasmolytic activity in rabbit jejunum assessed as relaxation of K+-induced muscle contraction at 30 ug/ml relative to calcium; format: functional, Oryctolagus cuniculus

Row | Compound | Ratio [1] | Ratio [2]
1 | CC(=O)O[C@H]1CC[C@]2(C)[C@H]3C=C[C@]45OC(=O)[C@@]6(CC[C@@H](C)[C@H](C)[C@H]64)CC[C@@]5(C)[C@]3(C)CC[C@H]2C1(C)C | 6.2 | 17.51
2 | C[C@H]1[C@H](C)CC[C@@]23CC[C@]4(C)[C@@](C=C[C@@H]5[C@@]6(C)CC[C@H](OC=O)C(C)(C)[C@@H]6CC[C@]54C)(OC2=O)[C@H]13 [CAMALDULIN] | 2.03 | 3.47
